The subject of one test is HUVEC. In words: HUVEC proliferation (MTS). The note with it: Homo sapiens, HUVEC. It is filed as cell-based, human. In outline: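 HUVECs seeded at 3,000 cells/well, attached overnight, then treated with varying drug concentrations. Proliferation read by MTS/PMS after 72 h.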
A further test relates to Ptch1 in C3Hs. The experiment in a line: Down-regulation of Ptch1 in C3H10T1/2 cells. It is filed as cell-based, mouse.
The subject of test [1] is MERP MB cells (Math1-Cre-ER; Ptc fl/fl medulloblastoma). The experiment in a line: Anti-proliferation in primary MERP MB cells. Type of test: cell-based, mice. The note with it: Mus musculus, 48 h, read-out: GI50 (μM) MERP MB, 48 hr incubation. As to the method:
(§1) General Information. Protocols for general cell culture, qPCR and Hh inhibition in C3H10T1/2 and ASZ cells are as previously described.^28 Protocols for the initiation and growth of Math1-Cre-ER; Ptc^fl/fl medulloblastoma tumors, isolation and in vitro culture of MERP MB cells, as wells as the anti-proliferation and qPCR studies performed in these cells were as previously described.^a Sonic Hedgehog (C25II) recombinant mouse protein was purchased from Life Technologies. aData was analyzed using GraphPad Prism 5 and reported values represent mean±SEM for at least two separate experiments performed in triplicate.
In this well-studied model system for evaluating small molecule inhibition of Hh signaling, addition of an exogenous Hh agonist (recombinant Hh ligand or small molecule) results in a characteristic increase in Gli1 mRNA expression. Concomitant incubation with a pathway inhibitor reduces Gli1 expression. […] In addition, several compounds were evaluated for their anti-proliferative effects in primary Hh-dependent medulloblastoma cells isolated from conditional patched knockout (Math1-Cre-ER; Ptc^fl/fl, MERP) mice. […] Finally, each of these analogues was evaluated for its ability to inhibit proliferation in human umbilical vein […] cells (HUVECs). In vivo angiogenesis is dependent on endothelial cell proliferation; therefore, the inhibition of HUVEC proliferation is commonly utilized as an early stage in vitro model of anti-angiogenic activity.

Test [2] deals with Hh signaling (Gli1 mRNA) in MERP MB cells. In words: Down-regulation of Gli1 mRNA in MERP MB cells. It is filed as cell-based, mice. The note with it: Mus musculus; 48 hr incubation. As to the method: as §1

Where two headings read alike, the source gives them in different places.

Text for Ptch1 in C3Hs: For this assay, the wild-type and D477G Smo constructs will be transiently transfected into C3H10T1/2 cells and inhibition of pathway signaling assessed as previously described.

On to `CCC(C)n1ncn(-c2ccc(N3CCN(c4ccc(OCC5COC(Cn6cncn6)(c6ccc(Cl)cc6Cl)O5)cc4)CC3)cc2)c1=O` (stereo not shown) [ITZ, itraconazole, reference compound], for which the GI50 was 0.4 ± 0.03 µM with HUVEC (72 h, read-out: GI50 (μM) HUVEC, 72 h); 0.45 µM with HUVEC (read-out: GI50 HUVEC proliferation); 0.44 ± 0.08 µM in test [1]. Besides, the IC50 in the test on HUVEC (read-out: HUVEC Anti-proliferation) is 450 ± 140 nM; in the test with Ptch1 in C3Hs it was 0.33 µM; in the test on Ptch1 in C3Hs (Mus musculus, C3H 10T1/2), 0.2 µM; in test [2], 0.39 ± 0.06 µM.

Source of the values: patent publication US9650365B2 (UNIVERSITY OF CONNECTICUT, priority 2014, dated 2017).
